Structures can show the parent of a compound that is named as a salt.
biological target: T1, thrombin (Homo sapiens, UniProt P00734); experiment: In vitro enzyme assay for determining thrombin inhibition constants (Chromozym TH substrate); type: biochemical; settings: thrombin prepared from human plasma; Dixon plot; pH 7.8; read-out: Inhibition constant Ki
T1 construct: Thrombin used in this test was prepared from human plasma; from tissue; host or cells: human plasma
Description: The activity of thrombin was measured spectrophotometrically using tosyl-Gly-Pro-Arg-p-nitroanilide acetate (Chromozym TH, Boehringer Mannheim) as a substrate. […] Each compound was dissolved in DMSO to make a 1 mM stock solution and dilutions were made thereof with assay buffer (0.1 M TrisHCl, 0.15 M NaCl, 0.1% polyethylene glycol 8000, pH 7.8). Different concentrations of inhibitor were mixed with 0.3 NIH units of thrombin in 0.8 mL of the buffer. The mixture was incubated for 10 min at room temperature before adding 0.2 mL of the substrate to a final concentration of 20 μM. […] A graph for the reciprocal value of initial velocity to the inhibitor concentration was derived from progress curves by fitting the data using a linear regression program. […]

| Structure (SMILES) | Ki [nM] |
| --- | --- |
| N=C(N)c1ccc(CNC(=O)[C@@H]2CCCN2C(=O)[C@H](NS(=O)(=O)Cc2ccccc2)C(c2ccccc2)c2ccccc2)cc1 [Compound 41, N-benzylsulfonyl-D-diphenylalanyl-L-prolyl-[(4-amidinophenyl)methyl]amide.TFA] | 0.01 |
| CN(C)S(=O)(=O)N[C@@H](C(=O)N1CCC[C@H]1C(=O)NCc1ccc(C(=N)N)cc1)C(c1ccccc1)c1ccccc1 [Compound 42, N-dimethylaminosulfonyl-D-diphenylalanyl-L-prolyl-[(4-amidinophenyl)methyl]amide.TFA] | 0.002 |
| COP(=O)(N[C@@H](C(=O)N1CCC[C@H]1C(=O)NCc1ccc(C(=N)N)cc1)C(c1ccccc1)c1ccccc1)OC [Compound 43, N-dimethoxyphosphoryl-D-diphenylalanyl-L-prolyl-[(4-amidinophenyl)methyl]amide.TFA] | 0.011 |
| CP(C)(=O)N[C@@H](C(=O)N1CCC[C@H]1C(=O)NCc1ccc(C(=N)N)cc1)C(c1ccccc1)c1ccccc1 [Compound 44, N-dimethylphosphoryl-D-diphenylalanyl-L-prolyl-[(4-amidinophenyl)methyl]amide.TFA] | 0.15 |
| N=C(N)c1ccc(CNC(=O)[C@@H]2CCCN2C(=O)[C@H](NCC(=O)O)C(c2ccccc2)c2ccccc2)cc1 [Compound 45, N-carboxymethyl-D-diphenylalanyl-L-prolyl-[(4-amidinophenyl)methyl]amide.2TFA] | 0.02 |
| N=C(N)c1ccc(CNC(=O)[C@@H]2CCCN2C(=O)[C@H](NCC(=O)O)C(c2ccccc2)c2ccccc2)cn1 [Compound 46, N-carboxymethyl-D-diphenylalanyl-L-prolyl-(6-amidino-3-picolyl)amide.2TFA] | 0.03 |

Second part, the compound after the results:

| Ki [nM] | Structure (SMILES) |
| --- | --- |
| 0.05 | N=C(N)c1ccc(CNC(=O)[C@@H]2CCCN2C(=O)[C@H](NCC(=O)O)C(c2ccccc2)c2ccccc2)cc1F [Compound 47, N-carboxymethyl-D-diphenylalanyl-L-prolyl-[(4-amidino-3-fluorophenyl)methyl]amide.2TFA] |
| 0.22 | Cc1cc(CNC(=O)[C@@H]2CCCN2C(=O)[C@H](NCC(=O)O)C(c2ccccc2)c2ccccc2)ccc1C(=N)N [Compound 48, N-carboxymethyl-D-diphenylalanyl-L-prolyl-[(4-amidino-3-methylphenyl)methyl]amide.2TFA] |
| 15.7 | CCOC(=O)CN[C@@H](C(=O)N1CCC[C@H]1C(=O)NCc1ccc(C(N)=NO)cc1)C(c1ccccc1)c1ccccc1 [Compound 49, N-(ethoxycarbonyl)methyl-D-diphenylalanyl-L-prolyl-[(4-hydroxyamidinophenyl)methyl]amide.TFA] |
| 0.045 | N=C(N)c1ccc(CNC(=O)[C@@H]2CCCN2C(=O)[C@H](Nc2ccccc2)C(c2ccccc2)c2ccccc2)cc1 [Compound 50, N-phenyl-D-diphenylalanyl-L-prolyl-[(4-amidinophenyl)methyl]amide.TFA] |

Source: US6774110B2, “Orally available peptidic thrombin inhibitors” (LG Life Sciences Ltd., priority 2001, dated 2004)
